Experiments:
[1] = test system: mTORC1; test: Amino acid starvation and re-stimulation of HEK-293T cells, phospho-S6K western blot; assay type: cell-based, human; settings: whole-cell assays of mTORC1 activity; partly called preliminary evidence
From the text: The work described herein determined which amino acids are most critical for signaling to the mTORC1 pathway in HEK-293T cells, the workhorse cell culture system to which we owe much of our understanding about amino acid sensing. The basic experimental paradigm consists of a 50-minute total amino acid starvation followed by a 10-minute stimulation with a customizable set of amino acids. […] The work described herein determined that that there may be one or more missing amino acids that, when added alongside Leu and Arg, could fully activate mTORC1.
To determine the identities of these missing amino acids, the inventors first stimulated cells with the set of essential or the set of nonessential amino acids. […] The inventors then tested triplet amino acid combinations comprised of Leu, Arg, and one additional essential amino acid. […] Cocktails of EAAs that omitted one amino acid at a time were prepared. […] Thus the necessity and sufficiency experiments yielded complementary results, converging on Leu, Arg, and Lys as key signals for mTORC1 activation in 293T cells.
The inventors have explored why this particular combination of amino acids has such synergistic effects on the mTORC1 pathway in 293T cells. Given that both Arg and Lys contain basic side chains, the inventors first wondered if this shared chemical property underlay their abilities to activate mTORC1.
Furthermore, the inventors continue to characterize structure-activity relationships using LRK derivatives with modifications on the carboxy terminus, the amino terminus, and/or the side chain in whole-cell and in vitro lysosomal assays of mTORC1 activity. The inventors first tested amino acid carboxyesters, whose enhanced ability to permeate membranes render them good candidates for lysosomal loading. Once inside the lysosome, amino acid esters are thought to undergo hydrolysis to yield their native counterparts. […] Knowledge of the chemical space around LRK can be used to develop probes for interrogating the LRK/protein(s) interaction interface for isolating and/or enriching the amino acid sensor(s) feeding into mTORC1.

[2] = test system: mTORC1; test: mTORC1 activity in MEFs (immunoblotting); assay type: cell-based, mouse; settings: AMPK activator treatment
Protocol: FIG. 16A is a bar graph illustrating the decrease in plasma amino acids in all 1 h fasted neonates. […] FIG. 16C is a western blot depicting the time course of mTORC1 and AMPK activity in AMPK-wt, AMPK-DKO, RagA^+/+ and RagA^GTP/GTP MEFs deprived of glucose for 0.5, 2 and 4 h. FIG. 16D is a western blot of whole cell lysates immunoblotted for the indicated proteins, showing control HEK-293T cells or those expressing RagB^GTP were deprived of growth factors, glucose, amino acids, or glucose and amino acids for 1 h and re-stimulated with glucose and/or amino acids for 10 min. FIG. 16E is a graph illustrating the quantification of the western blots on FIG. 12B and FIG. 16D. FIG. 16F is a western blot showing the effect of amino acid esters on mTORC1 activity in wt MEFs. FIG. 16G is a bar graph showing the quantification of amino acids in RagA^+/+ and RagA^GTP/GTP MEFs deprived of glucose (relative to un-starved controls). […]
Maintenance of mTORC1 activity requires the simultaneous presence of growth factors, amino acids, and glucose^1. […] In addition, AMPK activity, as monitored by acetyl-CoA carboxylase (ACC) phosphorylation, was induced to similar levels in glucose-deprived RagA^+/+ and RagA^GTP/GTP cells (FIG. 12B and FIG. 16C), but absent in AMPK-null cells (FIG. 12A).

[3] = test system: RagA^GTP/GTP neonates; test: Survival, glucose homeostasis and autophagy of fasted RagA^GTP/GTP neonates; assay type: in vivo, mouse
Protocol: NS, not significant. […] FIG. 10G is a series of bar graphs illustrating the quantification of neonatal plasma amounts of branched-chain (BCAA) and essential amino acids at birth (left), after 10 h fasting (middle) and after 10 h fasting with rapamycin treatment (right) (n for +/+, G/+ and G/G, respectively: n=4, 5 and 4 for 0 h; n=4, 4 and 3 for 10 h; n=2, 5 and 3 for rapamycin; mean±s.d.). Values are expressed relative to RagA^+/+ amounts at each time point.

[4] = test system: mTORC1; test: Phosphorylated S6 in gastrocnemius muscle and liver of fasted rats after oral gavage or bolus IV injection; assay type: in vivo; settings: summary of the rat studies
Protocol: FIGS. 23A, 23B, 23C and 23D depict the effect of administering various combinations of amino acids on levels of phosphorylated ribosomal protein S6 (pS6) in gastrocnemius muscle and liver. FIGS. 23A and 23B are bar graphs showing the fold increase in pS6/actin protein ratios in fasted rat gastrocnemius muscle (FIG. 23A) or liver (FIG. 23B) 30 and 60 minutes after administering amino acids via oral gavage. FIGS. 23C and 23D are bar graphs showing the fold increase in pS6/actin protein ratios in fasted rat gastrocnemius muscle (FIG. 23C) or liver (FIG. 23D) 30 and 60 minutes after administering amino acids via intravenous bolus injection.
Rats (n=3), fasted for 24 hours, were administered LRK or LCK via oral gavage or bolus IV injection and gastrocnemius muscle and liver was isolated 30 and 60 minutes later. Gastrocnemius muscle and liver was analyzed by SDS-PAGE followed by western blotting for levels of phosphorylated S6—a marker of mTORC1 activity.

[5] = cited from earlier work
[6] = Free amino acid levels in gastrocnemius muscle by LC-MS in fasted mice; assay type: in vivo, mouse; settings: upon IP injection of citrulline containing formulations
[7] = test system: mice, hindlimb immobilization model of muscle atrophy; test: Hindlimb immobilization/recovery model of muscle atrophy, gastrocnemius mass; assay type: in vivo, mouse; settings: left hindlimb immobilized 5 days, 5 days recovery; IP twice daily; rapamycin daily where indicated
Protocol: Mice were subjected to immobilization of the left hind limb for 5 days followed by a 5-day recovery period. Each mouse was injected intraperitoneally twice daily at 9 am and 6 pm during the whole immobilization/recovery periods with the indicated amino acid esters or vehicle control. Rapamycin or vehicle control was injected daily where indicated. Following completion of the study both the right and left gastrocnemius were removed and mass of each muscle was recorded. Percent recovery was calculated by comparing the mass of the left immobilized gastrocnemius to that of the contralateral control leg. Standard error is shown, n=5-6 per treatment.
The protocol of hindlimb immobilization involves casting of the rear left leg, resulting in atrophy of the gastrocnemius and soleus muscles. The rear right leg remains free, and serves as an internal control for gastrocnemius and soleus muscle mass.
The inventors performed an experiment where left hindlimbs were immobilized for 5 days, casts were removed, and a recovery period of 5 days continued until the study endpoint. Animals were injected with PBS as control, L ethyl ester, or LR ethyl esters twice daily. As in the previous experiment, the 1× doses of amino acids and their esters were calculated as 20% of the amount that an adult mouse eats in a 24 h period under ad libitum conditions. […]

[8] = test system: mTORC1; test: Muscle mTORC1 activation in immobilized and fasted mice after IP injection (phosphorylated S6, 4EBP1); assay type: in vivo, mouse; settings: 18-hour fast, 30 minutes
Protocol: Mice were subjected to a model of hindlimb immobilization for 5 days in which the left hindlimb was casted as described in Example 2 in order to induce atrophy. Food and water were provided ad libitum. The night before day 6, food was withdrawn and the mice were subjected to an 18-hour overnight fast. […] Right (R; control) and left (L*; immobilized) gastrocnemius muscles were collected 30 minutes after treatment, snap frozen in liquid nitrogen, and processed for western blotting analysis with appropriate antibodies as previously described.

[9] = test system: muscle protein synthesis; test: Muscle protein synthetic rate in starved rats (flooding dose of radiolabeled phenylalanine); assay type: in vivo, rat; settings: oral, 25% dose, 45 minutes, versus fasted vehicle control
Protocol: FIGS. 24A and 24B depict the effect of various amino acid combinations or a Leu-Arg-Lys tripeptide on phosphorylation of an mTORC1 substrate and the rate of muscle protein synthesis in starved rats.
To address this question, starved rats (n=8) were given oral doses of leucine, LR, LR(k), LC(k) and the LRK peptide and muscle protein synthetic rates were measured by administering a flooding dose of radiolabeled phenylalanine 10 minutes before sacrifice and quantifying uptake of radiolabeled phenylalanine.
Starved rats were dosed with amino acids benchmarked to either 5% of 25% of their daily intake of leucine. Rats were sacrificed 45 minutes after oral gavage and tissues and plasma was collected for mTORC1 signaling assessment, quantification of plasma leucine levels and measurement of protein synthetic rates.

[10] = test system: mTORC1; test: Assaying L, R, K analogs for mTORC1 modulation in whole cells (pS6K); assay type: cell-based, human
Protocol: Generally, to test analogs of L, R, and K, whole cells (e.g., HEK293) can be starved of all amino acids (using RPMI—aa) for a period of time (e.g., about 50 min), and then stimulated with a combination of L, R, or K and/or an analog of L, R, or K, and mTORC1 activity can be measured by phosphorylation of an mTORC1 substrate (e.g., S6K).
Below are exemplary conditions which can be used to assay analogs of leucine (e.g., photoleucine (photoLeu)) for their ability to activate or suppress mTORC1 activity.
4) RK+0.1× photoLeu 5) RK+0.5× photoLeu 6) RK+1× photoLeu 7) RK+10× photoLeu
9) LRK+0.1× photoLeu 10) LRK+0.5× photoLeu 11) LRK+1× photoLeu 12) LRK+10× photoLeu
Conditions 3-7 above test whether or not a leucine analog (e.g., photoLeu) can substitute for native Leu. […] Those skilled in the art will appreciate that conditions 3-7 above can be modified to assay other analogs, for example, by replacing RK with LK to assay R analogs or by replacing RK with LR to assay K analogs.
Conditions 8-12 above test whether or not a leucine analog (e.g., photoLeu) can compete against native Leu.
The concentration range of analogs used in the protocol set forth above was from about 0.1× to 10× (relative to RPMI), however, other concentrations may be used, as will be appreciated by the skilled artisan.

For CC(C)C[C@H](NC(=O)OCc1ccccc1)C(=O)O, the “mTORC1 stimulatory activity of derivative compared with the corresponding native amino acid” value [1] was “retains the ability to signal to mTORC1, albeit with lower potency than native Leu”.

With NC(=O)c1ncn([C@@H]2O[C@H](CO)[C@@H](O)[C@H]2O)c1N [AICAR, aminoimidazole carboxamide ribonucleotide] the “mTORC1 activity in RagA^+/+ and RagA^GTP/GTP MEFs” value [2] was “inhibited mTORC1 in cells of all genotypes”.

For C[C@H](N)C(=O)O [alanine], the “glycaemia of fasted neonates after injection” value ([3]; all neonates regardless of genotype) was “provoked a significant increase in glycaemia”.

For NC(=O)NCCC[C@H](N)C(=O)O [citrulline, L-Citrulline], the “mTORC1 activation at the level of muscle, as substitute for arginine” value [4] is given as “adequate substitute for arginine for mTORC1 activation at the level of muscle”, the “mTORC1 activation in liver, as substitute for arginine” value [4] is given as “less potent at activating mTORC1 in liver” and the “circulating citrulline converted to arginine by the kidneys” value ([5]; Bahri S. et al. 2013) is given as “over 80%”. For the same molecule, the “conversion of citrulline to arginine” value [6] was “little to no conversion of citrulline to arginine”.

With CCOC(=O)[C@@H](N)CC(C)C [leucine ethyl ester, L-leucine ethyl ester] the “relative gastrocnemius muscle mass compared to control (PBS injected mice)” value [7] was “the only treatment that led to a significant increase in gastrocnemius muscle mass was LR ethyl ester treatment” and the “mTORC1 stimulatory activity of derivative compared with the corresponding native amino acid” value [1] was “modestly more stimulatory than the corresponding native amino acid”.

In the case of COC(=O)[C@@H](N)CC(C)C [leucine methyl ester], the “mTORC1 stimulatory activity of derivative compared with the corresponding native amino acid” value [1] is reported as “modestly more stimulatory than the corresponding native amino acid”.

For CC(C)C[C@H](N)C(=O)O [leucine, L-leucine], the “mTORC1 activity (phosphorylated S6 and 4EBP1) in non-immobilized (R) gastrocnemius” value [8] was “stimulated mTORC1 in the non-immobilized muscle in all mice”, the “mTORC1 activity (phosphorylated S6 and 4EBP1) in immobilized (L*) gastrocnemius compared to fasted controls” value ([8]; 5 days immobilization, LRK = 1× (L-Leucine, L-Arginine) plus 0.1× L-Lysine) was “unable to increase mTORC1 activity in the immobilized (L*) gastrocnemius muscle in four of the 5 mice” and the “muscle protein synthesis (MPS) rate in gastrocnemius” value [9] was “little difference between fasted rats and rats given leucine alone”.

For CCOC(=O)[C@@H](N)CCCCN [lysine ethyl ester], the “mTORC1 stimulatory activity of derivative compared with the corresponding native amino acid” value [1] was “modestly more stimulatory than the corresponding native amino acid”.

In the case of COC(=O)[C@@H](N)CCCCN [lysine methyl ester], the “mTORC1 stimulatory activity of derivative compared with the corresponding native amino acid” value [1] is reported as “modestly more stimulatory than the corresponding native amino acid”.

For NCCCC[C@H](N)C(=O)O [lysine, L-lysine], the “bioavailability of orally ingested amino acid” value ([5]; Fry C S et al. 2011) is listed as “superior to leucine and arginine”.

In the case of CC1(C[C@H](N)C(=O)O)N=N1 [photoLeu], the “mTORC1 stimulatory activity of derivative compared with the corresponding native amino acid” value [1] is reported as “retains some mTORC1 stimulatory activity”, the “suppression of pS6K signal caused by baseline LRK (antagonist test)” value ([10]; LRK + 0.1× to 10× analog (relative to RPMI)) is reported as “not an antagonist or mTORC1-inactivating competitor against native Leu” and the “pS6K signal when analog substitutes for native Leu (agonist test)” value ([10]; RK + 0.1× to 10× analog (relative to RPMI)) is reported as “pS6K signal increases”.

In the case of CO[C@H]1C[C@@H]2CC[C@@H](C)[C@@](O)(O2)C(=O)C(=O)N2CCCC[C@H]2C(=O)O[C@H]([C@H](C)C[C@@H]2CC[C@@H](O)[C@H](OC)C2)CC(=O)[C@H](C)/C=C(\C)[C@@H](O)[C@@H](OC)C(=O)[C@H](C)C[C@H](C)/C=C/C=C/C=C/1C [rapamycin], the “time to death of fasted RagA^GTP/GTP neonates” value ([3]; treated at birth, untreated ˜14 h, p<0.01) is reported as about 21 h.

Reference: patent US20170027897A1, “mTORC1 MODULATION BY AMINO ACIDS AND USES THEREOF” (WHITEHEAD INSTITUTE FOR BIOMEDICAL RESEARCH, priority 2013, published 2017)
